Source: ChEMBL document CHEMBL1144812, “Small molecules with structural similarities to siderophores as novel antimicrobials against Mycobacterium tuberculosis and Yersinia pestis” (Bioorg Med Chem Lett, 2008)

Experiments:
Yersinia pestis [1] = experiment: Antimicrobial activity against Yersinia pestis KIM6-2082.1+ in presence of iron rich PMH-D medium; format: functional, organism-based
[2] = molecular target: T1, AMP-binding enzyme family protein (Yersinia pestis, UniProt Q56950); experiment: Inhibition of Yersinia pestis YbtE assessed as incorporation of [3H]salicyl group to HMWP2 protein
T1 sequence (Q56950 whole entry): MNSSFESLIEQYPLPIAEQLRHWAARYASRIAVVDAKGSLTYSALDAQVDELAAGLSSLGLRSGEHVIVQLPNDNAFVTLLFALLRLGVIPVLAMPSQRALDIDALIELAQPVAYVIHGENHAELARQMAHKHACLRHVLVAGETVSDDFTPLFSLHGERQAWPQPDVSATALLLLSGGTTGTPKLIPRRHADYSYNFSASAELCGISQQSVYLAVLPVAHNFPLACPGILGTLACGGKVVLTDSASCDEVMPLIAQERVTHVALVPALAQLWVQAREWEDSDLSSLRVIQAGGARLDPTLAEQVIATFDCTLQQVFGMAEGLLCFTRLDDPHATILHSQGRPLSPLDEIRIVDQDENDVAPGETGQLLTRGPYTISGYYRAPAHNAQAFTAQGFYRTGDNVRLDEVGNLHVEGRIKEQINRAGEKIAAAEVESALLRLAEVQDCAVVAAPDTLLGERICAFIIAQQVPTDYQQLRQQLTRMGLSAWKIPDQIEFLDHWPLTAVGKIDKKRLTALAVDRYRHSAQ

Yersinia pestis [3] = experiment: Antimicrobial activity against Yersinia pestis KIM6-2082.1+ in presence of iron limiting PMH-D medium; format: functional, organism-based
[4] = Cytotoxicity against human HeLa cells after 24 hrs; format: cell-based; conditions: read-out: CD50
[5] = test system: Mycobacterium tuberculosis; experiment: Antimycobacterial activity against Mycobacterium tuberculosis H37Rv in presence of iron rich GAST-D medium; format: functional, organism-based
[6] = test system: Mycobacterium tuberculosis; experiment: Antimycobacterial activity against Mycobacterium tuberculosis H37Rv in presence of iron deficient GAST-D medium; format: functional, organism-based
Yersinia pestis [7] = experiment: Ratio of MIC90 for Yersinia pestis KIM6-2082.1+ in iron rich PMH-D medium to MIC90 for Yersinia pestis KIM6-2082.1+ in presence of iron limiting PMH-D medium; format: functional
[8] = test system: Mycobacterium tuberculosis; experiment: Ratio of MIC90 for Mycobacterium tuberculosis H37Rv in iron rich GAST-D medium to MIC90 for Mycobacterium tuberculosis H37Rv in presence of iron limiting GAST-D medium; format: functional

Row | SMILES | IC50 (Yersinia pestis [1]) | MIC90 (Yersinia pestis [1]) | IC50 [2] | IC50 (Yersinia pestis [3]) | MIC90 (Yersinia pestis [3]) | CC50 at 24 h [4] | IC50 [5] | MIC90 [5] | IC50 [6] | MIC90 [6] | Ratio (Yersinia pestis [7]) | Ratio [8]
1 | COc1ccccc1[C@@H]1CC(c2ccccc2O)=NN1C(=S)Nc1ccccc1 | > 5 µM | > 5 µM | 3 µM | 0.4 µM | > 5 µM | 6 µM | > 250 µM | > 250 µM | > 250 µM | > 250 µM |  | 
2 | Oc1ccccc1C1=NN(C(=S)Nc2ccccc2)[C@H](c2ccccc2Cl)C1 | > 5 µM | > 5 µM | 2 µM | > 5 µM | > 5 µM | 5 µM | ≥ 500 µM | ≥ 500 µM | ≥ 500 µM | ≥ 500 µM |  | 
3 | COc1ccccc1NC(=S)N1N=C(c2ccccc2O)C[C@H]1c1ccc(O)cc1 | > 19 µM | > 19 µM | 0.3 µM | 2 µM | 6 µM | 1 µM | ≥ 500 µM | ≥ 500 µM | ≥ 500 µM | ≥ 500 µM | >3 | 
4 | Oc1ccccc1[C@@H]1CC(c2ccccc2)=NN1C(=S)Nc1ccccc1 | > 19 µM | > 19 µM | > 12.5 µM | > 19 µM | > 19 µM | 19 µM | 42 µM | 167 µM | 24 µM | 125 µM |  | 1
5 | CO[C@H]1/C=C/O[C@@]2(C)Oc3c(C)c(O)c4c(O)c(c(/C=N/N5CCN(C)CC5)c(O)c4c3C2=O)NC(=O)/C(C)=C\C=C\[C@H](C)[C@H](O)[C@@H](C)[C@@H](O)[C@@H](C)[C@H](OC(C)=O)[C@@H]1C [RIFAMPIN] |  |  |  |  |  | 190 µM |  | 0.008 µM |  | 0.008 µM |  | 1
6 | Oc1ccccc1C1=NN(C(=S)Nc2ccccc2)[C@H](c2ccc(Cl)cc2)C1 | > 5 µM | > 5 µM | 0.7 µM | 0.5 µM | 1 µM | 5 µM | ≥ 500 µM | ≥ 500 µM | ≥ 500 µM | ≥ 500 µM | >5 | 
7 | Oc1ccc([C@@H]2CC(c3ccccc3O)=NN2C(=S)Nc2ccccc2)cc1 | > 19 µM | > 19 µM | 0.4 µM | > 19 µM | > 19 µM | 42 µM | 4 µM | 12 µM | 3 µM | 13 µM |  | 1
8 | COc1ccc(NC(=S)N2N=C(c3ccccc3O)C[C@H]2c2ccc(O)cc2)cc1 | > 19 µM | > 19 µM | 7 µM | 0.7 µM | 2 µM | 4 µM | ≥ 500 µM | ≥ 500 µM | ≥ 500 µM | ≥ 500 µM | >10 | 
9 | COc1cc([C@@H]2CC(c3ccccc3O)=NN2C(=S)Nc2ccccc2)ccc1O | > 150 µM | > 150 µM | 0.2 µM | 2 µM | 5 µM | 13 µM | ≥ 500 µM | ≥ 500 µM | ≥ 500 µM | ≥ 500 µM | >30 | 
10 | COc1ccccc1NC(=S)N1N=C(c2ccccc2O)C[C@H]1c1ccccc1O | > 5 µM | > 5 µM | 0.8 µM | 2 µM | 5 µM | 15 µM | ≥ 500 µM | ≥ 500 µM | ≥ 500 µM | ≥ 500 µM | >1 | 
11 | COc1cc([C@@H]2CC(c3ccccc3O)=NN2C(=S)Nc2ccccc2OC)ccc1O | > 9 µM | > 9 µM | 0.8 µM | 1 µM | 6 µM | 11 µM | ≥ 500 µM | ≥ 500 µM | ≥ 500 µM | ≥ 500 µM | >2 | 
12 | Cc1ccc(NC(=S)N2N=C(c3ccccc3O)C[C@H]2c2ccc(O)cc2)cc1 | > 9 µM | > 9 µM | 0.4 µM | 0.9 µM | 3 µM | 3 µM | ≥ 500 µM | ≥ 500 µM | ≥ 500 µM | ≥ 500 µM | >3 | 
13 | Oc1ccccc1C1=NN(C(=S)Nc2ccccc2)[C@H](c2ccccc2)C1 | > 9 µM | > 9 µM | 0.5 µM | > 9 µM | > 9 µM | 3 µM | ≥ 500 µM | ≥ 500 µM | ≥ 500 µM | ≥ 500 µM |  | 
14 | COc1cc([C@@H]2CC(c3ccc(O)cc3O)=NN2C(=S)Nc2ccccc2OC)ccc1O | > 38 µM | > 38 µM | 0.2 µM | 17 µM | > 38 µM | 26 µM | 55 µM | 125 µM | 51 µM | 125 µM |  | 1
15 | COc1ccc([C@@H]2CC(c3ccccc3O)=NN2C(=S)Nc2ccccc2)cc1 | > 19 µM | > 19 µM | 1 µM | 0.7 µM | > 19 µM | 5 µM | ≥ 500 µM | ≥ 500 µM | ≥ 500 µM | ≥ 500 µM |  | 
16 | Oc1ccccc1C1=NN(C(=S)Nc2ccccc2)[C@H](c2cccs2)C1 |  |  | 2 µM |  |  |  |  |  |  |  |  | 
17 | Oc1ccc(C2=NN(C(=S)Nc3ccccc3)[C@H](c3ccc(O)cc3)C2)cc1 | > 75 µM | > 75 µM | > 12.5 µM | > 75 µM | > 75 µM | 248 µM | 105 µM | 250 µM | 83 µM | 125 µM |  | 2
18 | CN[C@@H]1[C@H](O[C@H]2[C@H](O[C@H]3[C@H](O)[C@@H](O)[C@H](N=C(N)N)[C@@H](O)[C@@H]3N=C(N)N)O[C@@H](C)[C@]2(O)C=O)O[C@@H](CO)[C@H](O)[C@H]1O (stereo in doubt) [STREPTOMYCIN] |  | 0.2 µM |  |  | 0.2 µM | > 500 µM |  |  |  |  | 1 | 
19 | Oc1ccc([C@@H]2CC(c3ccccc3)=NN2C(=S)Nc2ccccc2)cc1 | > 38 µM | > 38 µM | > 12.5 µM | > 38 µM | > 38 µM | 29 µM | ≥ 500 µM | ≥ 500 µM | ≥ 500 µM | ≥ 500 µM |  | 
20 | COc1ccc(NC(=S)N2N=C(c3ccc(O)cc3O)C[C@H]2c2ccc(O)c(OC)c2)cc1 | > 9 µM | > 9 µM | 1 µM | 0.2 µM | 1 µM | 31 µM | 167 µM | > 250 µM | 125 µM | > 250 µM | >9 | 
21 | C[C@@H]1C[C@@H]([C@H](O)CC2CC(=O)NC(=O)C2)C(=O)[C@@H](C)C1 [CYCLOHEXIMIDE] |  |  |  |  |  | 0.1 µM |  |  |  |  |  | 
22 | COc1ccc(NC(=S)N2N=C(c3ccccc3O)C[C@H]2c2ccc(O)c(OC)c2)cc1 | > 150 µM | > 150 µM | 0.5 µM | 0.6 µM | 2 µM | 25 µM | ≥ 500 µM | ≥ 500 µM | ≥ 500 µM | ≥ 500 µM | >75 | 
23 | Oc1ccc([C@@H]2CC(c3ccc(O)cc3O)=NN2C(=S)Nc2ccccc2)cc1 | > 150 µM | > 150 µM | 1 µM | 1 µM | 2 µM | 63 µM | > 250 µM | > 250 µM | 167 µM | > 250 µM | >75 | 
24 | NC(=S)N1N=C(c2ccccc2O)C[C@H]1c1ccc(O)cc1 | > 38 µM | > 38 µM | 0.5 µM | > 38 µM | > 38 µM | 398 µM | 125 µM | 333 µM | 8 µM | 21 µM |  | 16
25 | COc1cc([C@@H]2CC(c3ccccc3O)=NN2C(=S)Nc2ccc(C)cc2)ccc1O | > 19 µM | > 19 µM | 0.5 µM | 1 µM | 2 µM | 16 µM | ≥ 500 µM | ≥ 500 µM | ≥ 500 µM | ≥ 500 µM | >10 | 
26 | Nc1ncnc2c1ncn2[C@@H]1O[C@H](COS(=O)(=O)NC(=O)c2ccccc2O)[C@@H](O)[C@H]1O |  |  | 0.007 µM |  |  |  |  |  |  |  |  | 
